One block for each molecule: values may come before it.
How the values were obtained:
[1] = target: T1, recombinant HSF1 DNA-binding domain (DBD) (Homo sapiens, UniProt Q00613); test: Differential Scanning Fluorimetry (DSF), HSF1 DBD melting temperature; conditions: for ΔTm at 25 µM: Table 1, 5 μM HSF1 DBD, 25PM Compound, positive = stabilizes, negative = destabilizes HSF1; for effect on melting temperature of HSF1: thermal denaturation profiling, FIG. 2
T1 sequence (Q00613 15-120): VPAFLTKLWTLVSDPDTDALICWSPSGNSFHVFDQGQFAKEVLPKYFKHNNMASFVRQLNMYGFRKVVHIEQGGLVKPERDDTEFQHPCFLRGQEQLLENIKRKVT

[2] = tested on: heat shock induced chaperone (Hsp25 and Hsp70) expression; test: Heat shock induced chaperone expression in MEFs, immunoblotting; format: cell-based, mouse; conditions: heat shock 42° C. 30 mins, 6-hour recovery, FIG. 3
Procedure: The MEFs were then subjected to heat shock stress at 42° C. for 30 mins to activate HSF1. After heat shock, the MEFs were incubated at 37° C. for a 6-hour recovery. The whole cell lysates were collected at the end of the experiment, and proteins of interest, including Hsp25, Hsp70, HSF1 and GAPDH (as loading control) were assessed by immunoblotting with the corresponding antibody.

[3] = target: recombinant protein Hsc70 (Homo sapiens, UniProt P11142); test: Thermal denaturation of Hsc70 (selectivity); conditions: selectivity in binding, FIG. 2
[4] = tested on: C4-2 malignant prostate cancer cells vs BPH-1 non-tumorigenic prostate cells; test: AlamarBlue cell viability, C4-2 vs BPH-1; format: cell-based, human; conditions: FIG. 6A; for viability of C4-2 compared to BPH-1: 96 hours, AlamarBlue assay; for potency compared to Compound 0017: inhibition of metastatic prostate cancer cell growth
Procedure: The cells were treated for 96 hours with the indicated concentrations of the compounds of the disclosure and cell viability was measured with the AlamarBlue assay. FIG. 6B illustrates the results of Compound 0017 used in a 7-week Maximal Tolerated Dose (MTD) study conducted in mice (3 mice identified as 118, 119 and 120). […] After sacrificing the mice on the last day of the administration, mouse liver and heart tissue was isolated, messenger RNA extracted and the transcript abundance of the HSF1 target gene, Hsp70, was evaluated by qRT-PCR relative to the internal RNA control, GAPDH. The results of the vehicle-treated versus Compound 0017-treated experiments were compared.
Based on the chemical structure of Compound 0017 and its activity, and of other HSF1-interacting chemicals identified in the screen, additional derivatives were designed, synthesized and evaluated for binding to HSF1 and preferential inhibition of metastatic prostate cancer cells (C4-2) versus benign prostate cells (BPH-1).

[5] = tested on: Hsp70; test: HSF1 target gene transcript expression qPCR in C4-2 cells, Hsp70; format: cell-based; conditions: Homo sapiens, 2 hours then SNX-2112 (100 nM) 5 hr, vs GAPDH and DMSO
Procedure: (§1) Next, the change in heat shock protein gene expression in C4-2 prostate cancer cells was determined. C4-2 prostate cancer cells were grown in RMPI-1640 (no L-glutamine, Gibco 21870076) supplemented with 10% fetal bovine […] (non-heat-inactivated, Cytiva Hyclone SH30071.03). To quantitatively measure the inhibition of HSF1 activity in C4-2 prostate cancer cells, compounds or DMSO were added to triplicate C4-2 cell cultures for 2 hours. HSF1 activity was then stimulated with the Hsp90 inhibitor SNX-2112 (100 nM) for an additional 5 hr at 37° C. in the presence of HSF1 degrader compounds or DMSO. Total RNA was extracted, converted to cDNA and used in qPCR assays to quantify the change in HSF1 target gene transcript expression (HSPA4L equals Hsp70, HSPB1 equals Hsp27 and DNAJB1 equals Hsp40) as compared to GAPDH internal control gene, and then compared to DMSO negative control.

[6] = Rat liver microsome stability; format: in vitro ADME; conditions: rat liver microsomes, 37° C., read-out: Microsome Stability T1/2
Procedure: Next, the microsome stability in rats was determined for select compounds from Table 5. Test compounds are incubated with rat liver microsomes supplemented with co-factors at 37° C. Typical conditions were a compound concentration of 1 μM and 5 sampling time-points (0, 5, 15, 30 and 45 minutes), in duplicate. At each time-point, the reactions were terminated by the addition of organic solvent. The samples were centrifuged and the parent compound concentration was evaluated by LC-MS/MS measurements. Control compounds were included with well-established stability when incubated with rat microsomes. Multiple time points were used to determine % parent compound remaining at each time point and to calculate the Tiu2 for each compound in rat liver microsomes. A higher T1/2 indicates increased compound stability in microsomes.

[7] = tested on: C4-2 prostate cancer cells; test: C4-2 cell proliferation, Cell Titre Glo; format: cell-based; conditions: Homo sapiens, 48-hour period, 9-point dilution series, read-out: Cell Viability IC50
[8] = target: T2, purified recombinant human HSF1 (HSF1 DNA binding domain) (Homo sapiens, UniProt Q00613); test: Melting temperature of HSF1 DBD with HSF1 degrader compounds (Sypro orange); conditions: 12.5 micromolar compound, 5 micromolar HSF1 DBD, compared to DMSO; read-out: ΔTm (° C.)
T2 sequence (Q00613 15-120): T1 sequence (Q00613 15-120)
In short: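 HSF1 DNA-binding domain at 5 μM final with Sypro orange was heated 25–85° C in 0.5° C steps with 12.5 μM compound or DMSO, in triplicate. Melting curves were fitted to a Boltzmann equation, and ΔTm was taken as compound minus DMSO melting temperature.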

[9] = tested on: DNAJB1 equals Hsp40; test: HSF1 target gene transcript expression qPCR in C4-2 cells, Hsp40; format: cell-based; conditions: Homo sapiens, 2 hours then SNX-2112 (100 nM) 5 hr, vs GAPDH and DMSO
Procedure: as §1

Sequence of recombinant protein Hsc70 (P11142 whole entry, species assumed): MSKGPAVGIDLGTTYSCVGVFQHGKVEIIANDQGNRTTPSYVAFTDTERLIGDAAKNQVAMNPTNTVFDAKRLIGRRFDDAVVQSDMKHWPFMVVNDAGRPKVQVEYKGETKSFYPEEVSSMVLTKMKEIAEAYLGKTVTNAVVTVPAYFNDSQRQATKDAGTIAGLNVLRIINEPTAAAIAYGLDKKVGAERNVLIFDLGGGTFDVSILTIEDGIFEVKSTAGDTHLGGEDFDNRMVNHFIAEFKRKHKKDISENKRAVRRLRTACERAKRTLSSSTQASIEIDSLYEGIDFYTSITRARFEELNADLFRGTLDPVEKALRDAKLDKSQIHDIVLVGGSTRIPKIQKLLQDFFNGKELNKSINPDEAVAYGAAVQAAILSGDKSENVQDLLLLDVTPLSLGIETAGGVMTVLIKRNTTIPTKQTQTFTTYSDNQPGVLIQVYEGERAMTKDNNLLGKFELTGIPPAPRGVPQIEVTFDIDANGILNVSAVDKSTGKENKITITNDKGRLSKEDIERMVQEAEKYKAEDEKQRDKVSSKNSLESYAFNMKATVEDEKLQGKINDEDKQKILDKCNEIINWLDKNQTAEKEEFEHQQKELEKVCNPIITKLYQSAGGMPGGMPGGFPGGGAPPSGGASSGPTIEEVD

SMILES: O=C(Nc1ccccc1)Nc1ccccc1 [1,3-diphenylurea, reference compound]
- binding to HSF1 ([1]; thermal denaturation assay): fails to bind HSF1
- heat shock induced chaperone (Hsp25 and Hsp70) expression [2]: showed no impact on HSF1 activity

SMILES: O=C(Nc1ccc(F)cc1)Nc1ccc(Br)c(C(F)(F)F)c1 [Compound 0005, 1-(4-bromo-3-(trifluoromethyl)phenyl)-3-(4-fluorophenyl)urea]
- ΔTm at 25 µM [1]: 5.1 °C
- effect on melting temperature of HSF1 [1]: stabilized the melting temperature of HSF1
- effect on melting of unrelated protein Hsc70 [3]: did not affect the melting

SMILES: O=C(Nc1ccc(Cl)cc1)Nc1csc([N+](=O)[O-])c1 [Compound 0009]
- ΔTm at 25 µM [1]: 4.1 °C
- effect on melting temperature of HSF1 [1]: stabilized the melting temperature of HSF1
- effect on melting of unrelated protein Hsc70 [3]: did not affect the melting

SMILES: N#Cc1ccc(NC(=O)Nc2ccc(Cl)c(S(=O)(=O)C(F)(F)F)c2)cc1C(F)(F)F [Compound 257, 1-(4-chloro-3-((trifluoromethyl)sulfonyl)phenyl)-3-(4-cyano-3-(trifluoromethyl)phenyl)urea]
- mrna remaining at 10 µM [5]: 20%
- half-life at 1 μM [6]: 6.16 h
- IC50 [7]: 2.15 µM
- ΔTm at 12.5 µM [8]: 1.62 °C
- mrna remaining at 10 µM [9]: 7%

SMILES: N#Cc1ccc(NC(=O)Nc2ccc(Cl)c(C(F)(F)F)c2)cc1C(F)(F)F [Compound 258, 1-(4-chloro-3-(trifluoromethyl)phenyl)-3-(4-cyano-3-(trifluoromethyl)phenyl)urea]
- mrna remaining at 10 µM [5]: 60%
- half-life at 1 μM [6]: 10.6 h
- IC50 [7]: 1.66 µM
- ΔTm at 12.5 µM [8]: 2.26 °C
- mrna remaining at 10 µM [9]: 65%

Now from value to molecule, other results behind:

- ΔTm at 25 µM [1]: 2.93 °C
- effect on melting of unrelated protein Hsc70 [3]: did not affect the melting
SMILES: COc1cccc(-c2cnc(Nc3ccc(F)cc3)s2)c1 [Compound 0050]
- effect on melting temperature of HSF1 [1]: stabilized the melting temperature of HSF1

- ΔTm at 25 µM [1]: 2.9 °C
SMILES: O=C(Nc1ccc(F)cc1)Nc1ccc(Cl)c(S(=O)(=O)C(F)(F)F)c1 [Compound 0054, 1-[4-chloro-3-(trifluoromethylsulfonyl)phenyl]-3-(4-fluorophenyl)urea]
- viability of C4-2 compared to BPH-1 [4]: preferentially inhibit the viability
- potency compared to Compound 0017 [4]: increased potency compared to Compound 0017

- ΔTm at 25 µM [1]: 2.3 °C
SMILES: O=c1c(Nc2ccc(F)cc2)c(Nc2ccc(Cl)c(C(F)(F)F)c2)c1=O [Compound 0064, 3-[4-chloro-3-(trifluoromethyl)anilino]-4-(4-fluoroanilino)cyclobut-3-ene-1,2-dione]
- viability of C4-2 compared to BPH-1 [4]: preferentially inhibit the viability
- potency compared to Compound 0017 [4]: increased potency compared to Compound 0017
